Source: US6706663B2, “Herbicidal 3-heterocyclic substituted benzisothiazole and benzisoxazole compounds” (Wyeth, priority 2000, dated 2004)

Legend:
[1] = system: SAGPY (Sagittaria pygmaea); experiment: Flooded paddy, preemergence weed control; type: in vivo, L.; conditions: rated 3-4 weeks after treatment, 0-9 rating scale
In short: (§1)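 Plants were established from seed or propagating organs in flooded silt loam, with the water surface held 1.5 to 3 cm above the soil for the entire experiment. Injury was assessed visually against a control and given a 0-9 score.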

[2] = system: ORYSAT (Rice, Tebonnet); experiment: Flooded paddy, post-transplant rice tolerance; type: in vivo, Oryza sativa, (L.) Tebonnet; conditions: flooded paddy, post-transplant rice, rated 3-4 weeks after treatment, 0-9 rating scale
In short: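 Visual 0-9 rating against a control, covering stand, vigor, malformation, size, chlorosis and overall appearance. Treatment was applied after transplanting paired ten-day-old seedlings into flooded silt loam, with water kept 1.5 to 3 cm deep on greenhouse benches.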

[3] = system: IPOHE (Ipomoea hederacea); experiment: Preemergence herbicidal evaluation; type: in vivo, (L.) Jacq.; conditions: preemergence, rated 4-5 weeks after treatment
[4] = system: ECHCG (Echinochloa crus-galli); experiment: Postemergence herbicidal evaluation; type: in vivo, (L.) Beau
In short: (§2)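 Seedlings grown for about two weeks were sprayed postemergence and then kept under standard greenhouse care. Injury was rated visually 4–5 weeks after treatment on a 0–9 scale against untreated controls, and ratings from repeat tests were averaged.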

[5] = system: CYPIR (Cyperus iria); experiment: Flooded paddy, preemergence weed control; type: in vivo; conditions: rated 3-4 weeks after treatment, 0-9 rating scale
In short: as §1

[6] = system: ABUTH (Abutilon theophrasti); experiment: Postemergence herbicidal evaluation; type: in vivo, Medic.
In short: as §2

[7] = system: ECHCG (Echinochloa crus-galli); experiment: Preemergence herbicidal evaluation; type: in vivo, (L.) Beau; conditions: preemergence, rated 4-5 weeks after treatment
In short: (§3)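 Each species was sown separately in potting soil over roughly one inch of soil, and the surface sprayed with compound dissolved in aqueous acetone. Assessment used a 0–9 visual scale against a control after four to five weeks.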

[8] = system: SETVI (Setaria viridis); experiment: Preemergence herbicidal evaluation; type: in vivo, (L.) Beau; conditions: preemergence, rated 4-5 weeks after treatment
In short: as §3

[9] = system: MOOVA (Monochoria vaginalis); experiment: Flooded paddy, preemergence weed control; type: in vivo, Presl.; conditions: rated 3-4 weeks after treatment, 0-9 rating scale
In short: as §1

[10] = system: ORYSAT (Rice, Tebonnet); experiment: Preemergence herbicidal evaluation; type: in vivo, Oryza sativa, (L.) Tebonnet; conditions: preemergence, rated 4-5 weeks after treatment
[11] = system: AMBEL (Ambrosia artemisifolia); experiment: Preemergence herbicidal evaluation; type: in vivo, L.; conditions: preemergence, rated 4-5 weeks after treatment
In short: as §3

[12] = system: CASOB (Cassia obtusifolia); experiment: Preemergence herbicidal evaluation; type: in vivo, L.; conditions: preemergence, rated 4-5 weeks after treatment
In short: as §3

[13] = system: CHEAL (Chenopodium album); experiment: Preemergence herbicidal evaluation; type: in vivo, L.; conditions: preemergence, rated 4-5 weeks after treatment
In short: as §3

[14] = system: ORYSAT (Rice, Tebonnet); experiment: Postemergence herbicidal evaluation; type: in vivo, Oryza sativa, (L.) Tebonnet
In short: as §2

[15] = system: GLXMAW (Soybean, Williams); experiment: Postemergence herbicidal evaluation; type: in vivo, Glycine max, (L.) Merr. cv Williams
In short: as §2

[16] = system: IPOHE (Ipomoea hederacea); experiment: Postemergence herbicidal evaluation; type: in vivo, (L.) Jacq.
In short: as §2

[17] = system: ZEAMX (Corn, Field); experiment: Postemergence herbicidal evaluation; type: in vivo, Zea mays, L.
In short: as §2

[18] = system: ECHORC (Echinochloa oryzoides); experiment: Flooded paddy, preemergence weed control; type: in vivo, Echinochloa oryzoides (Ard.) Fritsch.; conditions: rated 3-4 weeks after treatment, 0-9 rating scale
In short: as §1

[19] = system: SETVI (Setaria viridis); experiment: Postemergence herbicidal evaluation; type: in vivo, (L.) Beau
In short: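 First, seedlings are raised in flats for about two weeks. Next, compound dispersed in 50/50 acetone/water with 0.5% TWEEN 20 is sprayed at 40 psi to deliver about 0.0040–1.000 kg/ha. Plants are then maintained in the greenhouse and rated 0-9 after four to five weeks.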

[20] = system: GALAP (Galium aparine); experiment: Postemergence herbicidal evaluation; type: in vivo
In short: as §2

Cn1c(C(F)(F)F)cc(=O)n(-c2ccc3snc(-c4cccs4)c3c2)c1=O [Compound 3, 1-methyl-3-[3-(2-thienyl)-1,2-benzisothiazol-5-yl]-6-(trifluoromethyl)uracil]
herbicidal rating, SAGPY ([1]; rate 0.0080 kg/ha): 0.0 | herbicidal rating, SAGPY ([1]; rate 0.0320 kg/ha): 1.0 | herbicidal rating, SAGPY ([1]; rate 0.1250 kg/ha): 5.5 | herbicidal rating, ORYSAT (rice tolerance) ([2]; rate 0.0080 kg/ha): 3.0 | herbicidal rating, ORYSAT (rice tolerance) ([2]; rate 0.0320 kg/ha): 3.5 | herbicidal rating, ORYSAT (rice tolerance) ([2]; rate 0.1250 kg/ha): 5.5 | IPOHE preemergence herbicidal rating ([3]; Rate 0.0620 kg/ha): 9.0 | IPOHE preemergence herbicidal rating ([3]; Rate 0.1250 kg/ha): 9.0 | IPOHE preemergence herbicidal rating ([3]; Rate 0.2500 kg/ha): 9.0 | Postemergence herbicidal rating, ECHCG ([4]; rate 0.0320 kg/ha): 2.0 | Postemergence herbicidal rating, ECHCG ([4]; rate 0.0620 kg/ha): 3.0 | Postemergence herbicidal rating, ECHCG ([4]; rate 0.1250 kg/ha): 4.0 | herbicidal rating, CYPIR ([5]; rate 0.0080 kg/ha): 0.0 | herbicidal rating, CYPIR ([5]; rate 0.0320 kg/ha): 8.5 | herbicidal rating, CYPIR ([5]; rate 0.1250 kg/ha): 9.0 | Postemergence herbicidal rating, ABUTH ([6]; rate 0.0320 kg/ha): 9.0 | Postemergence herbicidal rating, ABUTH ([6]; rate 0.0620 kg/ha): 9.0 | Postemergence herbicidal rating, ABUTH ([6]; rate 0.1250 kg/ha): 9.0 | ECHCG preemergence herbicidal rating ([7]; Rate 0.0620 kg/ha): 7.5 | ECHCG preemergence herbicidal rating ([7]; Rate 0.1250 kg/ha): 7.0 | ECHCG preemergence herbicidal rating ([7]; Rate 0.2500 kg/ha): 9.0 | SETVI preemergence herbicidal rating ([8]; Rate 0.0620 kg/ha): 9.0 | SETVI preemergence herbicidal rating ([8]; Rate 0.1250 kg/ha): 8.5 | SETVI preemergence herbicidal rating ([8]; Rate 0.2500 kg/ha): 9.0 | herbicidal rating, MOOVA ([9]; rate 0.0080 kg/ha): 9.0 | herbicidal rating, MOOVA ([9]; rate 0.0320 kg/ha): 9.0 | herbicidal rating, MOOVA ([9]; rate 0.1250 kg/ha): 9.0 | ORYSAT preemergence herbicidal rating ([10]; Rate 0.0620 kg/ha): 6.0 | ORYSAT preemergence herbicidal rating ([10]; Rate 0.1250 kg/ha): 5.0 | ORYSAT preemergence herbicidal rating ([10]; Rate 0.2500 kg/ha): 5.0 | AMBEL preemergence herbicidal rating ([11]; Rate 0.0620 kg/ha): 8.0 | AMBEL preemergence herbicidal rating ([11]; Rate 0.1250 kg/ha): 9.0 | AMBEL preemergence herbicidal rating ([11]; Rate 0.2500 kg/ha): 9.0 | CASOB preemergence herbicidal rating ([12]; Rate 0.0620 kg/ha): 4.0 | CASOB preemergence herbicidal rating ([12]; Rate 0.1250 kg/ha): 4.5 | CASOB preemergence herbicidal rating ([12]; Rate 0.2500 kg/ha): 5.5 | CHEAL preemergence herbicidal rating ([13]; Rate 0.0620 kg/ha): 9.0 | CHEAL preemergence herbicidal rating ([13]; Rate 0.1250 kg/ha): 9.0 | CHEAL preemergence herbicidal rating ([13]; Rate 0.2500 kg/ha): 9.0 | Postemergence herbicidal rating, ORYSAT ([14]; rate 0.0320 kg/ha): 3.0 | Postemergence herbicidal rating, ORYSAT ([14]; rate 0.0620 kg/ha): 4.0 | Postemergence herbicidal rating, ORYSAT ([14]; rate 0.1250 kg/ha): 4.5 | Postemergence herbicidal rating, GLXMAW ([15]; rate 0.0320 kg/ha): 6.0 | Postemergence herbicidal rating, GLXMAW ([15]; rate 0.0620 kg/ha): 6.5 | Postemergence herbicidal rating, GLXMAW ([15]; rate 0.1250 kg/ha): 8.5 | Postemergence herbicidal rating, IPOHE ([16]; rate 0.0320 kg/ha): 9.0 | Postemergence herbicidal rating, IPOHE ([16]; rate 0.0620 kg/ha): 9.0 | Postemergence herbicidal rating, IPOHE ([16]; rate 0.1250 kg/ha): 9.0 | Postemergence herbicidal rating, ZEAMX ([17]; rate 0.0320 kg/ha): 5.0 | Postemergence herbicidal rating, ZEAMX ([17]; rate 0.0620 kg/ha): 5.5 | Postemergence herbicidal rating, ZEAMX ([17]; rate 0.1250 kg/ha): 6.5 | herbicidal rating, ECHORC ([18]; rate 0.0080 kg/ha): 2.0 | herbicidal rating, ECHORC ([18]; rate 0.0320 kg/ha): 8.0 | herbicidal rating, ECHORC ([18]; rate 0.1250 kg/ha): 9.0 | Postemergence herbicidal rating, SETVI ([19]; rate 0.0320 kg/ha): 3.0 | Postemergence herbicidal rating, SETVI ([19]; rate 0.0620 kg/ha): 9.0 | Postemergence herbicidal rating, SETVI ([19]; rate 0.1250 kg/ha): 9.0 | Postemergence herbicidal rating, GALAP ([20]; rate 0.0320 kg/ha): 5.0 | Postemergence herbicidal rating, GALAP ([20]; rate 0.0620 kg/ha): 4.0 | Postemergence herbicidal rating, GALAP ([20]; rate 0.1250 kg/ha): 6.0
